Columns and labels:
[1] = Unbound fraction in po dosed human plasma; format: ADME, organism-based
in vivo = conditions: mouse, iv, 3 mg/kg
[2] = Ratio of drug level in blood to plasma in po dosed human; format: ADME, organism-based; conditions: blood and plasma, read-out: Rblood_plasma
[3] = Intrinsic clearance in human hepatocytes from chimeric mouse with humanized liver assessed per 10^6 cells at 10 uM after 0.25 to 2 hrs by LC-MS/MS method; format: ADME, cell-based, Hepatocyte; conditions: read-out: CLH
[4] = Total clearance in chimeric mouse with humanized liver at 3 mg/kg, iv by LC-MS/MS method; format: ADME, organism-based; set-up: dose 3 mg/kg, route intravenous; conditions: in vivo
[5] = Oral clearance in po dosed human; format: ADME, organism-based; conditions: in vivo
[6] = Total clearance in chimeric mouse with humanized liver at 0.3 mg/kg, iv by LC-MS/MS method; format: ADME, organism-based; set-up: dose 0.3 mg/kg, route intravenous; conditions: in vivo
[7] = Unbound fraction in iv dosed human plasma; format: ADME, organism-based
clinical = conditions: human, in vivo, iv
Description: Total clearance in iv dosed human

Which results are given for `CC1=C(CC(=O)O)c2cc(F)ccc2/C1=C\c1ccc([S+](C)[O-])cc1` (stereo not drawn)?
fraction unbound [1]: 0.069; half-life (in vivo): 72 min; blood plasma ratio [2]: 1; hepatocyte CLint at 10 µM [3]: 2 µL/min/1e6 cells; clearance [4]: 5.6 mL/min/kg; CL/F [5]: 3.3 mL/min/kg

Which clearance [6] does the source give for `CC(=O)C[C@@H](c1ccccc1)c1c(O)c2ccccc2oc1=O` here?
Its clearance is 0.2 mL/min/kg.

What about the fraction unbound [7] of the same molecule?
The fraction unbound was 0.015.

What about the hepatocyte CLint at 10 µM [3] of the same molecule?
Its hepatocyte CLint at 10 µM is 1.2 µL/min/1e6 cells.

What about the clearance (clinical) of the same molecule?
Its clearance is 0.055 mL/min/kg.

With `Nc1ncc2ncn(CCC(CO)CO)c2n1` [6-DEOXY PENCICLOVIR] as the molecule, how does the fraction unbound [1] read?
The fraction unbound was 1.

And the half-life (in vivo)?
The half-life was 6 min.

And the blood plasma ratio [2]?
The blood plasma ratio was 1.2.

And the hepatocyte CLint at 10 µM [3]?
Its hepatocyte CLint at 10 µM is 5.3 µL/min/1e6 cells.

What about the clearance [4] of the same molecule?
The clearance was 71.2 mL/min/kg.

What about the CL/F [5] of the same molecule?
Its CL/F is 118 mL/min/kg.

For `CC(C)(C)NCC(O)c1ccc(O)c(CO)c1` (stereo not drawn) [ALBUTEROL], which fraction unbound [7] is on record?
Its fraction unbound is 0.925.

What does the source list for `Nc1ccc(S(=O)(=O)c2ccc(N)cc2)cc1` [DAPSONE]?
hepatocyte CLint at 10 µM [3]: 2.3 µL/min/1e6 cells; clearance [4]: 2.1 mL/min/kg

Which half-life (in vivo) does the source give for `O=C(O)Cc1ccccc1Nc1c(Cl)cccc1Cl` [DICLOFENAC] here?
Its half-life is 36 min.

And the hepatocyte CLint at 10 µM [3]?
The hepatocyte CLint at 10 µM was 24.7 µL/min/1e6 cells.

What about the clearance [4] of the same molecule?
The clearance was 16.4 mL/min/kg.

For `O=S(=O)(c1cccc2cnccc12)N1CCCNCC1` [FASUDIL], which fraction unbound [7] is on record?
The fraction unbound was 0.51.

For `Nc1nnc(-c2cccc(Cl)c2Cl)c(N)n1` [LAMOTRIGINE], which fraction unbound [1] is on record?
The fraction unbound was 0.45.

And the half-life (in vivo)?
Its half-life is 606 min.

What about the blood plasma ratio [2] of the same molecule?
Its blood plasma ratio is 1.

And the hepatocyte CLint at 10 µM [3]?
The hepatocyte CLint at 10 µM was 1.4 µL/min/1e6 cells.

And the clearance [4]?
The clearance was 1.4 mL/min/kg.

What about the CL/F [5] of the same molecule?
Its CL/F is 0.3 mL/min/kg.

Which hepatocyte CLint at 10 µM [3] does the source give for `CN1CCN2c3ncccc3Cc3ccccc3C2C1` (stereo not drawn) [MIRTAZAPINE] here?
The hepatocyte CLint at 10 µM was 6.3 µL/min/1e6 cells.

What about the clearance [4] of the same molecule?
The clearance was 30.4 mL/min/kg.

Which hepatocyte CLint at 10 µM [3] does the source give for `CCN(C(C)=O)c1cccc(-c2ccnc3c(C#N)cnn23)c1` [ZALEPLON] here?
The hepatocyte CLint at 10 µM was 2.3 µL/min/1e6 cells.

And the clearance [4]?
The clearance was 48.1 mL/min/kg.
